For eight compounds, IC50 results are on record in patent publication US6951870B2, “Coumarin derivatives with COMT inhibiting activity” (Orion Corporation, priority 2000, dated 2005).

The target of this assay is T1, S-COMT enzyme (Homo sapiens, UniProt P21964).
T1 sequence (P21964 1-221 isoform P21964-2): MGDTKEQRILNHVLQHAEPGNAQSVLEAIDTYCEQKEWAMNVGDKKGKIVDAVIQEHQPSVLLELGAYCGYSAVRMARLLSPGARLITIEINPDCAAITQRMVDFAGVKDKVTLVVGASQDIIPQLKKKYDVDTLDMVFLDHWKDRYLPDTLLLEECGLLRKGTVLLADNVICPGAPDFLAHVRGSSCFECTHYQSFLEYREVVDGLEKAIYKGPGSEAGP
The assay can be described thus: Determination of COMT activity (IC50). It counts as biochemical. The following applies: S-COMT about 30 nM, 3 mM dopamine substrate, 0.05 mM AdoMet, 5 mM MgCl2, pH 7.4, 37° C., 15 min. The procedure: Experiment I: Determination of COMT Activity (IC50)
The determination of IC50 was performed by mesuring the COMT activity in a test sample which contained S-COMT enzyme (about 30 nM), 3 mM dopamine (as the substrate of COMT), 5 mM magnesium chloride, 0.05 mM S-adenosyl-L-methionine (AdoMet) and a test compound of the invention at various concentrations in 0.1 M phosphate buffer, pH 7.4, at 37° C.
The reaction in the test sample was initiated by adding the dopamine substrate to the sample mixture and, after incubation for 15 min at 37° C., the reaction was stopped with 4 M perchloric acid and stabilized further 10 min in ice bath. Thereafter the precipitated proteins were removed by centrifugation (4000×G for 10 min). The activity of COMT enzyme was measured by determining the concentration of the reaction products, 3-methyldopamine and 4-methyidopamine, by HPLC. The results were calibrated with 3-methyidopamine standards. See also T.Lotta et al., Biochemistry, vol.34(13), 1995, p.4204, T.Lotta et al. The IC50 value is the concentration of the test compound which causes a 50% decrease in COMT activity.

Broadly, the IC50 is the concentration that gives 50% inhibition. A low value points to greater potency in that assay. `O=c1oc2c([N+](=O)[O-])c(O)c(O)cc2cc1-c1ccccc1` [Example 6(b), 6,7-Dihydroxy-8-nitro-3-phenyl-chromen-2-one] showed an IC50 of 30 nM. To `O=C(c1ccccc1)c1cc2c([N+](=O)[O-])c(O)c(O)cc2oc1=O` [Example 7, 3-Benzoyl-6,7-dihydroxy-5-nitro-chromen-2-one] belongs 30 nM; to `O=c1oc2cc(O)c(O)c([N+](=O)[O-])c2c2c1CCCC2` [Example 8, 2,3-Dihydroxy-1-nitro-7,8,9,10-tetrahydro-benzo[c]chromen-6-one], 50 nM. `O=C(O)c1cc2c([N+](=O)[O-])c(O)c(O)cc2oc1=O` [Example 9(c), 6,7-Dihydroxy-5-nitro-2-oxo-2H-chromene-3-carboxylic acid] registered an IC50 of 20 nM. In turn, `O=C(O)c1cc2cc(O)c(O)c([N+](=O)[O-])c2oc1=O` [Example 10(d), 6,7-Dihydroxy-8-nitro-2-oxo-2H-chromene-3-carboxylic acid] returned an IC50 of 35 nM. The same measure for `O=C(O)Cc1cc2c([N+](=O)[O-])c(O)c(O)cc2oc1=O` [Example 11(c), (6,7-Dihydroxy-5-nitro-2-oxo-2H-chromen-3-yl)-acetic acid]: 10 nM; for `O=c1oc2cc(O)c(O)c([N+](=O)[O-])c2cc1-c1nnn[nH]1` [Example 12(b), 6,7-Dihydroxy-5-nitro-3-(1H-tetrazol-5-yl)-chromen-2-one]: 10 nM; for `Cc1c(CC(=O)O)c(=O)oc2cc(O)c(O)c([N+](=O)[O-])c12` [Example 13(c), (6,7-Dihydroxy-4-methyl-5-nitro-2-oxo-2H-chromen-3-yl)-acetic acid]: 60 nM.
